Measurements as given in ChEMBL document CHEMBL5321267, “Phomactinine, the First Nitrogen-Bearing Phomactin, Produced by Biatriospora sp. CBMAI 1333” (J Nat Prod, 2023).
Active and inactive are the calls of the source. The calls are words filed in the database; no cut-off is given here.

Target: Platelet-activating factor receptor (Homo sapiens) (UniProt P25105)
Experiment: Antagonist activity at PAFR in human KB cells assessed as inhibition of cPAF induced IL-8 release at 10 to 25 uM preincubated for 24 hrs followed by cPAF stimulation and measured after 6 hrs by ELISA method
Assay type: functional, cell-based
Conditions: filed as antagonist, dose 10-25 µM, time 30.0 hrs

Sequence of Platelet-activating factor receptor (Homo sapiens) (P25105 whole entry): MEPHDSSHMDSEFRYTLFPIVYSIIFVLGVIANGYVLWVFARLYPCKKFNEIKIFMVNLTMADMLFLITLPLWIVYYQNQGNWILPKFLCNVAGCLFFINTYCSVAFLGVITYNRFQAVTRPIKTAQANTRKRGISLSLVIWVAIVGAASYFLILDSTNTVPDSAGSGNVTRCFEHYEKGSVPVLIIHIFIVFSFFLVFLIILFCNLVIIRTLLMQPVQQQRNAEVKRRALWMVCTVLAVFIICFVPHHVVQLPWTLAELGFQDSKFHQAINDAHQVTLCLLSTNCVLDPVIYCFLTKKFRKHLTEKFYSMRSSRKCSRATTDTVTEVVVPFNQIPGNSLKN

inhibition: Active
SMILES: C/C1=C\CC[C@@]2(C)O[C@@H]2[C@@]23C(=O)NC=C2[C@@](C)(CC1)[C@H](C)C[C@@H]3O
